Holding throughout (test): relative viability (nuclei count vs DMSO), 5 days (fraction); higher = more cells survive
Compound in assay [1]: CCOC1=CC=CC=C1N=NC2=C(NN(C2=O)C3=NC(=CS3)C4=CC=CC=C4)C [BAM7] + COc1cc2c(Oc3ccc(NC(=O)C4(C(=O)Nc5ccc(F)cc5)CC4)cc3F)ccnc2cc1OCCCN1CCOCC1 [Foretinib] (partner 0.25 µM)
A digest of the protocol:
(§1)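 Dosing by pin tool came one day after lung cancer cell lines were seeded in 1536-well plates, using either one drug or a fixed anchor-drug dose plus five library-drug doses (not always all listed) in √10 steps. After 5 days, nuclei were counted on 4× images. Relative viability is treated-well nuclei count divided by vehicle-well nuclei count, and values are medians of duplicate plates.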

Compound in assay [2]: CCn1c(-c2nonc2N)nc2c(C#CC(C)(C)O)ncc(OC[C@H]3CCCNC3)c21 + CS(=O)(=O)N1CCN(Cc2cc3nc(-c4cccc5[nH]ncc45)nc(N4CCOCC4)c3s2)CC1 [Pictilisib] (partner 1 µM)
A digest of the protocol: as §1

Compound in assay [3]: CCn1c(-c2nonc2N)nc2c(C#CC(C)(C)O)ncc(OC[C@H]3CCCNC3)c21 + C[C@@H](Oc1cc(-c2cnn(C3CCNCC3)c2)cnc1N)c1c(Cl)ccc(F)c1Cl [Crizotinib] (partner 1 µM)
A digest of the protocol: as §1

Compound in assay [4]: CCn1c(-c2nonc2N)nc2c(C#CC(C)(C)O)ncc(OC[C@H]3CCCNC3)c21 + C[C@]1(O)C[C@@H](c2nc(-c3ccc4ccc(-c5ccccc5)nc4c3)c3c(N)nccn32)C1 [Linsitinib] (partner 1 µM)
A digest of the protocol:
as §1

Take UMC-11: the relative viability is 1.03 in assay [1] (first compound 0.5 µM); 1.09 in assay [1] (first compound 5 µM); 1.13 in assay [1] (first compound 15.81 µM); 1.07 in assay [1] (first compound 50 µM); 0.778 in assay [2] (first compound 0.01 µM); 0.681 in assay [2] (first compound 0.03162 µM). Besides, the relative viability in assay [2] (first compound 0.1 µM) came to 0.771; in assay [2] (first compound 0.3162 µM) it was 0.758; in assay [2] (first compound 1 µM), 0.935; in assay [3] (first compound 0.01 µM) it was 0.704; in assay [3] (first compound 0.03162 µM) it was 0.695; in assay [3] (first compound 0.1 µM), 0.65. Further, the relative viability in assay [3] (first compound 0.3162 µM) turned out to be 0.645; in assay [3] (first compound 1 µM) it was 0.547; in assay [4] (first compound 0.01 µM) it was 0.991; in assay [4] (first compound 0.03162 µM), 1.05; in assay [4] (first compound 0.1 µM), 0.974; in assay [4] (first compound 0.3162 µM), 0.976. Also, the relative viability in assay [4] (first compound 1 µM) turned out to be 1.04.
